The target in assay [1] is T1, LecB (Pseudomonas aeruginosa, UniProt Q9HYN5). The assay can be described thus: biochemical. The assay is classed as binding. The settings on record: for rIC50 (MeMan): IC50 relative to Me-α-Man, below 1 = stronger ligand than Me-α-Man. On the procedure: A LecB competition assay was carried out by a novel fluorescence polarization assay developed by the inventors of the present invention. To date, an enzyme-linked lectin assay (ELLA) is widely used for the evaluation in screening of the binding potential of ligands to LecB. This allows the evaluation of molecules over a broad affinity range, including monovalent ligands and oligomeric dendrimers thereof. ELLAs have been developed based on enzyme-linked immunosorbent assays (ELISA). […] Furthermore, the current ELLA protocol involves either a surface immobilization of LecB or a covalent modification of the lectin, which could interfere with ligand binding. Consequently, hits from the ELLA are usually further characterized by direct measurement of the binding process of the ligand with the native, unmodified protein using microcalorimetry, requiring large amounts of protein.
In this assay format, the displacement of a fluorescently-labeled reporter ligand bound to the receptor by an inhibitor can be measured by mixing protein, inhibitor and reporter ligand in a given buffer system.
Similar conditions were applied, but the protein concentration was fixed at 150 nM. […] The resulting sigmoidal data points on the logarithmic inhibitor concentration scale were used to fit a one-site inhibition model and obtain IC50 values.
After addition of the reagents, the microtiter plates were centrifuged at 800 rpm for 1 min at 23° C. and incubated for 6 h at room temperature. The fluorescence was measured on a Tecan […] F500 plate reader (Tecan Austria GmbH) with excitation filters at 485 nm and emission filters at 535 nm in black 384-well microtiter plates (Greiner Bio-One). The G-factor was set on 0.92154 and the gain to 80. The measured intensities were reduced by buffer values. The data were analyzed with Graphpad Prism 5 and fitted according to the four parameter variable slope model.

Assay [2] has as its target T1, LecB. The assay can be described thus: biochemical. It counts as binding. The settings on record: for kd: SPR, 1:1 binding model; for kon: pH 7.4, read-out: ka.

T1 sequence (Q9HYN5 entry or part of it): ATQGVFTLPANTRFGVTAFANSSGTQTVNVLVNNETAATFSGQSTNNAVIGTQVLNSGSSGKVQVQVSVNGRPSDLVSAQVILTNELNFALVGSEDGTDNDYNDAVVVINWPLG

In the case of `CO[C@H]1O[C@H](CNC(=O)/C=C/c2ccc(N)cc2)[C@@H](O)[C@H](O)[C@@H]1O` [11j, Methyl 6-(4-aminocinnamido)-6-deoxy-α-D-mannopyranoside], on LecB [1], half-maximal inhibition (IC50) required 53.2 µM and the “rIC50 (MeMan)” value was 0.24. On to `CO[C@H]1O[C@H](CNC(=O)/C=C/c2ccc(C)cc2)[C@@H](O)[C@H](O)[C@@H]1O` [11k, Methyl 6-(4-methylcinnamido)-6-deoxy-α-D-mannopyranoside], for which, on LecB [1], the “rIC50 (MeMan)” value stood at 0.16.

`CO[C@H]1O[C@H](CNC(=O)/C=C/c2ccc(Cl)cc2)[C@@H](O)[C@H](O)[C@@H]1O` [11l, Methyl 6-(4-chlorocinnamido)-6-deoxy-α-D-mannopyranoside]: at LecB [1], it took 48.4 µM to reach half-maximal inhibition (IC50) and the “rIC50 (MeMan)” value is on record as 0.22. As for `CO[C@H]1O[C@H](CNC(=O)/C=C/c2ccc(Cl)cc2Cl)[C@@H](O)[C@H](O)[C@@H]1O` [11m, Methyl 6-(2,4-dichlorocinnamido)-6-deoxy-α-D-mannopyranoside], at LecB [1], the midpoint of inhibition, the IC50, lay at 71 µM and the “rIC50 (MeMan)” value turned out to be 0.32. For `COc1ccc(/C=C/C(=O)NC[C@H]2O[C@H](OC)[C@@H](O)[C@@H](O)[C@@H]2O)cc1OC` [11n, Methyl 6-(3,4-dimethoxycinnamido)-6-deoxy-α-D-mannopyranoside], on LecB [2], the kd worked out at 0.0013 s⁻¹. The “rIC50 (MeMan)” value at LecB [1] amounted to 0.13. For `CO[C@H]1O[C@H](CNC(=O)/C=C/c2ccc3c(c2)OCO3)[C@@H](O)[C@H](O)[C@@H]1O` [11o, Methyl 6-(3,4-methylenedioxycinnamido)-6-deoxy-α-D-mannopyranoside], at LecB [1], the IC50 turned out to be 31.8 µM and the “rIC50 (MeMan)” value was 0.15.

Consider `CO[C@H]1O[C@H](CNC(=O)Cc2ccccc2)[C@@H](O)[C@H](O)[C@@H]1O` [11q, Methyl 6-(phenylacetamido)-6-deoxy-α-D-mannopyranoside], for which, on LecB [1], it took 205 µM to reach half-maximal inhibition (IC50) and the “rIC50 (MeMan)” value was determined as 0.93.

As for `CO[C@H]1O[C@H](CNC(=O)c2ccc([N+](=O)[O-])cc2)[C@@H](O)[C@H](O)[C@@H]1O` [11r, Methyl 6-(4-nitrobenzoylamido)-6-deoxy-α-D-mannopyranoside], on LecB [1], the IC50 is 206 µM and the “rIC50 (MeMan)” value came out at 0.94. For `CO[C@H]1O[C@H](CNC(=O)c2ccccc2Cl)[C@@H](O)[C@H](O)[C@@H]1O` [11s, Methyl 6-(2-chlorobenzoylamido)-6-deoxy-α-D-mannopyranoside] the same measures were 239 µM and 1.09. Consider `CO[C@H]1O[C@H](CNC(=O)c2ccc3ccccc3c2)[C@@H](O)[C@H](O)[C@@H]1O` [11t, Methyl 6-(2-naphtoylamido)-6-deoxy-α-D-mannopyranoside], for which, at LecB [1], half-maximal inhibition (IC50) required 118 µM and the “rIC50 (MeMan)” value worked out at 0.54. `Cc1cc(C)c(S(=O)(=O)NC[C@H]2OC(C)[C@@H](O)C(O)C2O)c(C)c1` (stereo partly drawn) [13b, N-(6S-Methyl-3R,4R,5R-trihydroxy-tetrahydropyranosyl-2R-methyl)-2,4,6-trimethylphenyl sulfonamide]: on LecB [2], the kd worked out at 0.00041 s⁻¹ and the kon worked out at 1260 M⁻¹ s⁻¹. Turning to `CC1OC(CNC(=O)/C=C/c2ccccc2)C(O)C(O)[C@@H]1O` (stereo partly drawn) [compound 13, N-(6S-Methyl-3R,4R,5R-trihydroxy-tetrahydropyranosyl-2R-methyl)-cinnamide], at LecB [2], the kd stood at 0.00041 s⁻¹ and the kon was 255 M⁻¹ s⁻¹. In addition, the “rIC50 (MeMan)” value on LecB [1] is on record as 0.1. At LecB [1], `COC1O[C@H](CNS(=O)(=O)/C=C/c2ccccc2)C(O)C(O)[C@@H]1O` (stereo partly drawn) [compound 14, Methyl 6-(trans-β-styrenesulfonylamido)-6-deoxy-α-D-mannopyranoside] returned an IC50 of 79 µM. In other words, the double-digit micromolar range. On the same count and under the same terms, the result for `CC1O[C@H](CNS(=O)(=O)/C=C/c2ccccc2)C(O)C(O)[C@@H]1O` (stereo partly drawn) [compound 15, N-(6S-Methyl-3R,4R,5R-trihydroxy-tetrahydropyranosyl-2R-methyl)-trans-β-styrene sulfonamide] reads 12.7 µM.

For the origin of these results see patent US9371351B2, “Glycomimetics as Pseudomonas aeruginosa lectin inhibitors” (priority 2012, dated 2016).
